Measurements published in publication PMC524486, “Branched-chain amino acid aminotransferase and methionine formation in Mycobacterium tuberculosis” (BMC Microbiology, 2004).
Values after ≈ are worked out from the molar mass of the structure shown. Where two headings read alike, the source gives them in different places.

How the values were obtained:
[1] = system: M. tuberculosis branched-chain aminotransferase; assay type: biochemical, Mycobacterium tuberculosis H37Rv; settings: for amino donor activity for Met formation from KMTB: 2 mM individual amino acid, 1 mM KMTB, 30 min at 37°C (Figure 5); for Km: read-out: Apparent Km
M. tuberculosis [2] = experiment: In vitro growth inhibition, microtitre doubling dilution, A650 nm; assay type: cell-based, M. tuberculosis H37Rv
M. marinum = experiment: as above; assay type: cell-based, M. marinum Aronson (ATCC927)
M. tuberculosis BCAT = M. tuberculosis BCAT (Mycobacterium tuberculosis, UniProt P9WQ75); experiment: Inhibition of BCAT-catalysed Met formation by aminooxy compounds; assay type: biochemical, Mycobacterium tuberculosis H37Rv; settings: for inhibition of Met formation, ranking at 0.1 mM / inhibition of Met formation: 2.0 mM leucine; for inhibition of Met formation, ranking at 0.1 mM: 0.1 mM inhibitor (Figure 6); for type of inhibition: fit to competitive, uncompetitive and mixed inhibition equations; for inhibition of Met formation: 0.1 or 1.0 mM inhibitor (Figure 6)
Description: Aminotransferase activities were assayed by an HPLC method. 5 or 10 μl of recombinant enzyme was added to 100 μl of substrate mix (100 mM PO4 (pH 7.4)/50 μM PLP/various concentrations of amino acid/various concentrations of keto acid) and incubated for 30 min at 37°C. The samples were then stored at -20°C until analysis by HPLC. All samples were analysed by pre-column derivatisation and reverse-phase HPLC. 10 μl of sample was mixed with 50 μl of 400 mM borate pH 10.5 and then with 10 μl of 10 mg/ml o-phthalaldehyde/12 μl/ml mercaptopropionate/400 mM borate pH 10.5 prior to the injection of 7.0 μl onto a 2.1 × 200 mm ODS-AA column (Agilent; Mississauga, ON, Canada). The column was eluted using 2.72 mg/ml sodium acetate pH 7.2/0.018% v/v triethylamine/0.3% v/v tetrahydrofuran as Buffer A and 2.72 mg/ml sodium acetate pH 7.2/40% v/v methanol/40% v/v acetonitrile as Buffer B with a linear gradient of 0 – 17% B over 16 min followed by a linear gradient of 17–100% B over 1 min and 6.0 min at 100% B. The flow rate was 0.45 ml/min from 0 – 16 min and 0.80 ml/min from 17–30 min. The elution of derivatised amino acids was monitored at 338 nm and fluorometrically with an excitation of 338 nm and an emission of 450 nm. All separations were performed on an Agilent 1100 HPLC equipped with an autosampler, variable wavelength ultraviolet/visible spectrophotometric detector, fluorescence detector, and Chemstation operating system.
Initial inhibition studies screened 13 aminooxy compounds against M. tuberculosis BCAT using 2.0 mM Leu/1.0 mM KMTB/0.1 or 1.0 mM inhibitor in the enzyme incubation. […] These reactions involved 0.5, 1.0, 2.0, or 3.0 mM Leu and 1.0 mM KMTB in the reaction mixture together with 0, 25, 50, 75, 100, 150, 200 μM of inhibitor. The Ki values were determined by non-linear curve fitting with the Scientist software programmed with competitive, uncompetitive, and mixed inhibition equations [25].

M. tuberculosis [3] = settings: older study, other medium, cited from earlier work
[4] = varying substrate, 10 mM cosubstrate KMTB, Met formation
[5] = varying substrate, 10 mM cosubstrate KG, Glu formation
[6] = varying keto acid substrate, 10 mM cosubstrate Leu
[7] = M. tuberculosis, n = 6, 14 days at 37°C, Middlebrook 7H9
[8] = M. tuberculosis, n = 6, 14 days at 37°C, Middlebrook 7H9, read-out: IC50
[9] = M. marinum, n = 8, 8 days at 30°C, Middlebrook 7H9
[10] = M. marinum, n = 8, 8 days at 30°C, Middlebrook 7H9, read-out: IC50
[11] = 0.5-3.0 mM Leu, 1.0 mM KMTB, 0-200 μM inhibitor
[12] = read-out: Kic (competitive component of mixed-type inhibition), 0.5-3.0 mM Leu, 1.0 mM KMTB, 0-200 μM inhibitor
[13] = Mycobacterium tuberculosis, 336 h

Sequence of M. tuberculosis BCAT (P9WQ75 whole entry, looked up): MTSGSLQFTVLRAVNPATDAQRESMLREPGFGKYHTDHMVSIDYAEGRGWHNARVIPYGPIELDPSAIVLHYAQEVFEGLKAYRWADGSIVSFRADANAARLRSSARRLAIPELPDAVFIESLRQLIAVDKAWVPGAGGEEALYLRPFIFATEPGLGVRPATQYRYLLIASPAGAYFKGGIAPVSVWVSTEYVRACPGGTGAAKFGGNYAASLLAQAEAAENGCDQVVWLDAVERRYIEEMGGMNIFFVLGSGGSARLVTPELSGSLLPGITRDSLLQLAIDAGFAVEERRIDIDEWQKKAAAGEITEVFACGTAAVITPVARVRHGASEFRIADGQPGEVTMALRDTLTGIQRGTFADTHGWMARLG

With `N[C@@H](CCC(=O)O)C(=O)O` [Glu, glutamate] the “amino donor activity for Met formation from KMTB” value (shortened to “amino donor activity”) [1] was “also active as amino donors”, the “Apparent Vmax” value [1, 4] was 5.70 ± 1.20 μmol/min/mg protein and the Km [1, 4] was 9530 ± 3430 µM.

In the case of `CC[C@H](C)[C@H](N)C(=O)O` [Ile, Isoleucine], the “amino donor activity” value [1] is reported as “most effective substrates”, the “Apparent Vmax” value [1, 5] is reported as 14.35 ± 1.08 μmol/min/mg protein and the Km [1, 5] is reported as 6160 ± 1140 µM. For the same compound, the “Apparent Vmax” value [1, 4] was 4.28 ± 0.32 μmol/min/mg protein and the Km [1, 4] was 2850 ± 560 µM.

For `O=C(O)CCC(=O)C(=O)O` [KG, ketoglutarate], the “Apparent Vmax” value [1, 6] was 12.80 ± 1.12 μmol/min/mg protein and the Km [1, 6] was 6950 ± 1440 µM.

For `CSCCC(=O)C(=O)O` [KMTB, ketomethiobutyrate], the “Apparent Vmax” value [1, 6] was 4.22 ± 0.72 μmol/min/mg protein and the Km [1, 6] was 4200 ± 1790 µM.

For `CC(C)C[C@H](N)C(=O)O` [Leu, leucine], the “amino donor activity” value [1] was “most effective substrates”, the “Apparent Vmax” value [1, 5] was 13.44 ± 0.84 μmol/min/mg protein and the Km [1, 5] was 6020 ± 940 µM. The “Apparent Vmax” value [1, 4] was 3.65 ± 0.43 μmol/min/mg protein and the Km [1, 4] was 2500 ± 900 µM.

For `CC(C)(C)ON` [O-(t-butyl)hydroxylamine], the MIC (M. tuberculosis [2]; [7]) was 10000 µM, the IC50 (M. tuberculosis [2]; [8]) was 131 ± 23.1 µM and the MIC (M. marinum; [9]) was 10000 µM. For the same compound, the IC50 (M. marinum; [10]) was 43.2 ± 10.5 µM, the “inhibition of Met formation, ranking at 0.1 mM” value (from here on “inhibition … at 0.1 mM”) (M. tuberculosis BCAT; 1.0 mM KMTB) was “most active” and the “Kiu (uncompetitive component of mixed-type inhibition)” value (M. tuberculosis BCAT; [11]) was 85.60 ± 44.79 µM. The type of inhibition (M. tuberculosis BCAT) was “mixed-type inhibition” and the Ki (M. tuberculosis BCAT; [12]) was 11 ± 2.76 µM.

`C=CCON` [O-allylhydroxylamine] gave an MIC (M. tuberculosis [2]; M. tuberculosis, as stated in text (present data), read-out: MIC) of 156 µM, an MIC (M. tuberculosis [2]; [7]) of 156 µM and an IC50 (M. tuberculosis [2]; [8]) of 39.2 ± 2.01 µM. For the same compound, the MIC (M. marinum; [9]) was 78 µM, the IC50 (M. marinum; [10]) was 8.49 ± 1.96 µM and the MIC (M. marinum; M. marinum, read-out: MIC) was 78 µM. The “inhibition … at 0.1 mM” value (M. tuberculosis BCAT; 1.0 mM KMTB) was “most active”, the “Kiu (uncompetitive component of mixed-type inhibition)” value (M. tuberculosis BCAT; [11]) was over 200 µM and the type of inhibition (M. tuberculosis BCAT) was “mixed-type inhibition”. For the same compound, the Ki (M. tuberculosis BCAT; [12]) was 21.6 ± 11.1 µM.

Compound `NOCc1ccccc1` [O-benzylhydroxylamine] has an MIC (M. tuberculosis [2]; [7]) of 1250 µM, an IC50 (M. tuberculosis [2]; [8]) of 468 ± 62.8 µM and an MIC (M. marinum; [9]) of 1250 µM. The IC50 (M. marinum; [10]) was 411 ± 67.1 µM, the “inhibition … at 0.1 mM” value (M. tuberculosis BCAT; 1.0 mM KMTB) was “most active” and the “Kiu (uncompetitive component of mixed-type inhibition)” value (M. tuberculosis BCAT; [11]) was 84.08 ± 31.91 µM. For the same compound, the type of inhibition (M. tuberculosis BCAT) was “mixed-type inhibition” and the Ki (M. tuberculosis BCAT; [12]) was 8.2 ± 2.56 µM.

In the case of `C[Si](C)(C)ON` [O-trimethylsilylhydroxylamine], the “inhibition of Met formation” value (M. tuberculosis BCAT; 1.0 mM KMTB) is reported as “With the exception of O-trimethylsilylhydroxylamine, all of the compounds inhibited Met formation to some extent”.

With `N[C@@H](Cc1ccccc1)C(=O)O` [Phe, phenylalanine] the “amino donor activity” value [1] was “also active as amino donors”, the “Apparent Vmax” value [1, 4] was 2.17 ± 0.22 μmol/min/mg protein and the Km [1, 4] was 7440 ± 1400 µM.

With `N[C@@H](Cc1ccc(O)cc1)C(=O)O` [Tyrosine] the “amino donor activity” value [1] was “much lesser ability to transaminate KMTB”.

In the case of `CC(C)[C@H](N)C(=O)O` [Val, valine], the “amino donor activity” value [1] is reported as “most effective substrates”, the “Apparent Vmax” value [1, 5] is reported as 11.82 ± 0.80 μmol/min/mg protein and the Km [1, 5] is reported as 5790 ± 990 µM. For the same compound, the “Apparent Vmax” value [1, 4] was 2.58 ± 0.41 μmol/min/mg protein and the Km [1, 4] was 1770 ± 860 µM.

In the case of `NOCC[C@H](N)C(=O)O` [canaline], the IC50 (M. tuberculosis [2]; [13]) is reported as 273 ± 14.6 µM, the MIC (M. tuberculosis [2]; [13]) is reported as 1250 µM and the IC50 (M. marinum; Mycobacterium marinum, 192 h) is reported as 335 ± 13.6 µM. The MIC (M. marinum; Mycobacterium marinum, 192 h) was 1250 µM and the “inhibition of Met formation” value (M. tuberculosis BCAT; 1.0 mM KMTB) was “not a particularly good inhibitor”.

In the case of `NOCC(=O)O` [carboxymethoxylamine], the IC50 (M. tuberculosis [2]; Mycobacterium tuberculosis, 336 h, M. tuberculosis, n = 6, 14 days at 37°C, Middlebrook 7H9, read-out: IC50) is reported as 71 ± 7.83 µM, the MIC (M. tuberculosis [2]; Mycobacterium tuberculosis, 336 h, M. tuberculosis, n = 6, 14 days at 37°C, Middlebrook 7H9, read-out: MIC) is reported as 313 µM and the MIC (M. tuberculosis [2]; Mycobacterium tuberculosis, M. tuberculosis, as stated in text (present data), read-out: MIC) is reported as 313 µM. The IC50 (M. marinum; Mycobacterium marinum, 192 h, M. marinum, n = 8, 8 days at 30°C, Middlebrook 7H9, read-out: IC50) was 89.3 ± 7.65 µM, the MIC (M. marinum; Mycobacterium marinum, 192 h, M. marinum, n = 8, 8 days at 30°C, Middlebrook 7H9, read-out: MIC) was 313 µM and the MIC (M. tuberculosis [3]; ref 35) was 910 µM (≈ 82.9 µg/mL). The MIC (M. tuberculosis [3]; ref 37) was 170 µM (≈ 15.5 µg/mL), the Ki (M. tuberculosis BCAT) was 21 ± 7.27 µM and the “inhibition … at 0.1 mM” value (M. tuberculosis BCAT; 1.0 mM KMTB) was “most active”. For the same compound, the “Kiu (uncompetitive component of mixed-type inhibition)” value (M. tuberculosis BCAT; [11]) was 142.42 ± 69.76 µM and the type of inhibition (M. tuberculosis BCAT) was “mixed-type inhibition”.

Work on `[H]/N=C(/N)N[C@H]1[C@H](O)[C@@H](O)[C@H](O[C@@H]2O[C@@H](C)[C@](O)(C=O)[C@H]2O[C@@H]2O[C@@H](CO)[C@H](O)[C@@H](O)[C@@H]2NC)[C@@H](N/C(N)=N\[H])[C@@H]1O` [streptomycin] yielded an MIC (M. tuberculosis [2]; Mycobacterium tuberculosis, M. tuberculosis, read-out: MIC) of 2 µg/mL and an MIC (M. marinum; Mycobacterium marinum, M. marinum, read-out: MIC) of 8 µg/mL.

In the case of `N[C@@H](Cc1c[nH]c2ccccc12)C(=O)O` [tryptophan], the “amino donor activity” value [1] is reported as “much lesser ability to transaminate KMTB”.
